Measurements: publication PMC3532118, “A Novel Muscarinic Antagonist R2HBJJ Inhibits Non-Small Cell Lung Cancer Cell Growth and Arrests the Cell Cycle in G0/G1” (PLoS ONE, 2012)
Where two headings read alike, the source gives them in different places.

Key:
H1299 cells [1] = experiment: Exogenous ACh combined with R2HBJJ, cell viability (SRB)
Protocol: To determine the correlation between cholinergic signal pathways and R2HBJJ-induced growth inhibition, exogenous AChR agonist ACh was used. The effects of ACh on the growth of H1299 and on R2HBJJ-induced growth inhibition were observed.
Cells were seeded at a density of 6.0×10^3 cells/well in 96-well plates. After overnight incubation, the cells were treated with R2HBJJ (1.6–100 µM) or other antagonists (0.3–100 µM) for 72 h. The inhibitory effects of the antagonists on cell growth were determined using SRB assay, as described previously. For the combination administration, the agonist was added 1 h before R2HBJJ. Each experiment was performed in six replicates and repeated for three times. Cells treated with solvent (DMSO) were used as a control, with viability set at 100%.
(§1) GraphPad Prism 5 software was used for statistical analysis. For competition binding and Guinea-pig tracheal contraction assay, the IC50 values were determined by using the non-linear curve-fitting program. The inhibition constants (Ki values) were calculated by using the Cheng-Prusoff equation. For the experiments of exogenous ACh combined with R2HBJJ, two-way ANOVA was used to compare the interaction of two treatment factors. Post-hoc analyses were performed with Bonferroni's tests for comparisons to controls. For the cell viability assay after siRNA transfection, one-way ANOVA followed by Dunnett's t test was used. A P value of less than 0.05 was considered statistically significant.

H1299 cells [2] = experiment: Cell viability assay (SRB), H1299; format: cell-based, human
Protocol: (§3) Cells were seeded at a density of 6.0×10^3 cells/well in 96-well plates. […] The inhibitory effects of the antagonists on cell growth were determined using SRB assay, as described previously [37]. […] Each experiment was performed in six replicates and repeated for three times. Cells treated with solvent (DMSO) were used as a control, with viability set at 100%.

[3] = target: human muscarinic receptor M1 (Homo sapiens, UniProt P11229); experiment: biochemical
Protocol: (§2) Bound radioligand was separated from free by rapid vacuum filtration through GF/C glass fiber filters (Whatman). The filters were rinsed three times with ice cold PBS. After being dried, the fibers were placed in scintillation vials with 0.5 ml of BetaPlate Scint. Radioactivity trapped on the filters was quantified by a BECKMAN Beta counter. The assay was repeated three times with duplicate samples.
as §1

[4] = target: human muscarinic receptor M3 (Homo sapiens, UniProt P20309); experiment: biochemical
Protocol: as §2, §1

[5] = target: T1, human muscarinic receptor M2 (Homo sapiens, UniProt P08172); experiment: Radioligand binding assay with [3H]NMS (saturation and competition), M2; settings: mean ± SD
T1 construct: purchased Perkin Elmer Life and Analytical Sciences
Protocol: as §2, §1

[6] = target: T2, human muscarinic receptor M4 (Homo sapiens, UniProt P08173); experiment: biochemical; format: binding; settings: mean ± SD
T2 construct: purchased Perkin Elmer Life and Analytical Sciences
Protocol: as §2
as §1, with “used.” for “used. A P value of less than 0.05 was considered statistically significant.”

[7] = target: T3, human muscarinic receptor M5 (Homo sapiens, UniProt P08912); experiment: Radioligand binding assay with [3H]NMS (saturation and competition), M5; settings: mean ± SD
T3 construct: purchased Perkin Elmer Life and Analytical Sciences
Protocol: as §2, §1

H460 cells = experiment: Cell viability assay (SRB), H460; format: cell-based; settings: Homo sapiens, NCI-H460, read-out: 50% growth-inhibitory concentration (GI50), H460, 72 h
Protocol: as §3

H157 cells = experiment: Cell viability assay (SRB), H157; format: cell-based; settings: Homo sapiens, NCI-H157, read-out: 50% growth-inhibitory concentration (GI50), H157, 72 h
Protocol: as §3

A549 cells = experiment: Cell viability assay (SRB), A549; format: cell-based; settings: Homo sapiens, read-out: 50% growth-inhibitory concentration (GI50), A549, 72 h, 100 µM highest concentration tested
Protocol: as §3

BEP2D cells = experiment: Cell viability assay (SRB), BEP2D; format: cell-based; settings: Homo sapiens, read-out: 50% growth-inhibitory concentration (GI50), 72 h, 100 µM highest concentration tested
Protocol: as §3

H1299 cells [8] = experiment: cells
Protocol: as §1

H1299 cells [9] = experiment: Cell cycle analysis by flow cytometry, H1299; format: cell-based, human; settings: H1299, 20 µM
Protocol: Alterations in cell cycle were determined by using flow cytometric assay. Cells were seeded at a density of 1×10^5 cells/well in six-well plates and synchronized by plating in RPMI-1640 containing 1% FBS for 24 h. For time-dependent response, cells were incubated in 2 ml fresh RPMI-1640 containing 10% FBS with 20 µM R2HBJJ for 24, 48, 72 h. For concentration-dependent response, cells were incubated for 48 h with R2HBJJ at final concentrations of 2.5, 5, 10, 15, 20 µM in 2 ml fresh RPMI-1640 containing 10% FBS. Fresh media added in the control well simultaneously. After treatment, the cells were harvested with trypsin, washed once with PBS, and then fixed in 70% ethanol overnight at 4°C. Before flow cytometry analysis, cells were stained with 200 µg/ml Ribonuclease A and 50 µg/ml propidium iodide (Sigma) for 30 min at room temperature away from light. 1×10^4 cells per sample were analyzed using a FACSCalibur flow cytometer (BD Biosciences). Data were evaluated using Modfit software.

[10] = tested on: cyclin D1-CDK4/6-Rb in H1299 cells; experiment: Western blot of cell cycle regulatory proteins and Rb phosphorylation; format: cell-based, human
Protocol: Cell cycle transition from G1 to S is mainly activated by two different kinase composites: cyclin D1/CDK4, 6, and cyclin E, A/CDK2. Rb is the primary substrate of cyclin D-dependent kinase and plays a key role in the network of cell cycle regulation. To investigate the underlying molecular mechanisms of G0/G1 arrest induced by R2HBJJ, the time-dependent changes of several related cell cycle regulatory molecules were evaluated after treatment with 20 µM R2HBJJ in H1299 cells by using western blot analysis. […] The decrease of Rb phosphorylated at the position of Ser^807/811 occurred as early as 3 h after treatment and before apparent cell viability change. […] Further we evaluated the concentration response of Rb phosphorylation reduced after treatment with R2HBJJ for 48 h (Fig. 8B).
Cells were harvested and subjected to lysis in the buffer X (50 mM Tris, 270 mM NaCl, 1% Triton X-100, pH 7.4). Equal amounts of lysates (30 µg) were separated on 10% SDS-PAGE and then transferred to polyvinylidene difluoride membranes (Millipore). Membranes were then blocked with PBS buffer containing 5% low fat milk and 0.1% Tween 20 (PBST) for 1 h at room temperature and then incubated with primary antibodies (1∶1000–2000) overnight at 4°C. After being washed three times with PBST, membranes were incubated with peroxidase-conjugated secondary antibodies (1∶5000) for 1 h at room temperature. The membranes were washed with PBST again and developed with a pro-light HRP chemiluminescence detection kit (TianGen Biotech, China). β-actin was used as a loading control.

[11] = Homo sapiens, NCI-H1299, 72 h, read-out: cell viability
[12] = H1299, 72 h, SRB, antagonists 0.3–100 µM, no exogenous agonist
[13] = 2.4 nM [3H]NMS, n = 3, read-out: IC50 inhibiting [3H]NMS binding
[14] = Cheng-Prusoff, n = 3, read-out: Ki inhibiting [3H]NMS binding

T2 sequence (P08173 whole entry): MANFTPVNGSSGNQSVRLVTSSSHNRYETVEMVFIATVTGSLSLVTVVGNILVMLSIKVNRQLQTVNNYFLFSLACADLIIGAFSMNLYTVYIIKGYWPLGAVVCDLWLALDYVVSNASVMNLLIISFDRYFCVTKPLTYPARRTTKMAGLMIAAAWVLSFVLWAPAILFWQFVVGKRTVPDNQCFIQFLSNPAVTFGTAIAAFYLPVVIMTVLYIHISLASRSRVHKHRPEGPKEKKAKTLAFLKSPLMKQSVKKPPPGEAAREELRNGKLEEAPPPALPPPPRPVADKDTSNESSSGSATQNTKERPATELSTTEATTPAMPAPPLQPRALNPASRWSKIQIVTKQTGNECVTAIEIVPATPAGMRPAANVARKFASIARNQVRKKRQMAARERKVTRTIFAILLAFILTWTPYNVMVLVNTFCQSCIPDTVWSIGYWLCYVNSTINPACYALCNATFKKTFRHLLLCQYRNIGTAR
T3 sequence (P08912 whole entry): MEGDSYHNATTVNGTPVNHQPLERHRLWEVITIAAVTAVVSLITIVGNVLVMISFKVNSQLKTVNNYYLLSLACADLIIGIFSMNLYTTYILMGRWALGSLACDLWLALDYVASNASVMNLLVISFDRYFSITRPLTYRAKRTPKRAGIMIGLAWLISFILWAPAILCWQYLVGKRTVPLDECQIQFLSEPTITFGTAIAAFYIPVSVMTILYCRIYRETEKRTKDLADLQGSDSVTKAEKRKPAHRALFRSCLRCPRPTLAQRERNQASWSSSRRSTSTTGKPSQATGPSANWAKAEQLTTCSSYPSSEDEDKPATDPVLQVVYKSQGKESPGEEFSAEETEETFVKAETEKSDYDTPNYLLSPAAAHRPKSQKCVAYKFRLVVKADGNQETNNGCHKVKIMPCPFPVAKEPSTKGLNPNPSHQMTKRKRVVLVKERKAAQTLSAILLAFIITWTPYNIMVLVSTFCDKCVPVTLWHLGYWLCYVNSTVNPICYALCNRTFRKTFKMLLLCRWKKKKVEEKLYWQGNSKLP
Chain of human muscarinic receptor M1 (P11229 whole entry): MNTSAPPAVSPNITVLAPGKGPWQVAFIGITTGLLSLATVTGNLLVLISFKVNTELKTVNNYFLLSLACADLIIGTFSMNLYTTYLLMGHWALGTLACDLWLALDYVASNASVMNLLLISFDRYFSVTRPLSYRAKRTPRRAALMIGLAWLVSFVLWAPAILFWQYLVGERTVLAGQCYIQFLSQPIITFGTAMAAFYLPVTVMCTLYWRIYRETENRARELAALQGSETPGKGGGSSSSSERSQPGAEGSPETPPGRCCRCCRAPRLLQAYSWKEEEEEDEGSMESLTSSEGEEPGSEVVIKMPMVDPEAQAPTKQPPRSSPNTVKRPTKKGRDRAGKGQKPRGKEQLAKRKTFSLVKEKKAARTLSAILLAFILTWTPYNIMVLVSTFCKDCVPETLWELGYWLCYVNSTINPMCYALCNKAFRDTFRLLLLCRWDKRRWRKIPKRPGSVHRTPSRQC
T1 sequence (P08172 whole entry): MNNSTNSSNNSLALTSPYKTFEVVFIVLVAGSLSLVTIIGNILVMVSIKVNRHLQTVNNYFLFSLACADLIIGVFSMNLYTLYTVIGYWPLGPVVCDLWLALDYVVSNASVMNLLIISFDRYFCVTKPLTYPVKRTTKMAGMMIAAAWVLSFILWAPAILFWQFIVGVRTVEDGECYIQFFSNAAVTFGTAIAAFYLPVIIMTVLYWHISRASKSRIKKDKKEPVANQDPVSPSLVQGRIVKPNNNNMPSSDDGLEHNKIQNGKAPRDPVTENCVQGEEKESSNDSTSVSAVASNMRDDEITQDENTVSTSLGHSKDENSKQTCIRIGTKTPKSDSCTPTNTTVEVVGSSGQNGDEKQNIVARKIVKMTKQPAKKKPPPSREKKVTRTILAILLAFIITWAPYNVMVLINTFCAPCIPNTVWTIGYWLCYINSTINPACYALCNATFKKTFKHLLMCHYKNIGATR
Chain of human muscarinic receptor M3 (P20309 whole entry): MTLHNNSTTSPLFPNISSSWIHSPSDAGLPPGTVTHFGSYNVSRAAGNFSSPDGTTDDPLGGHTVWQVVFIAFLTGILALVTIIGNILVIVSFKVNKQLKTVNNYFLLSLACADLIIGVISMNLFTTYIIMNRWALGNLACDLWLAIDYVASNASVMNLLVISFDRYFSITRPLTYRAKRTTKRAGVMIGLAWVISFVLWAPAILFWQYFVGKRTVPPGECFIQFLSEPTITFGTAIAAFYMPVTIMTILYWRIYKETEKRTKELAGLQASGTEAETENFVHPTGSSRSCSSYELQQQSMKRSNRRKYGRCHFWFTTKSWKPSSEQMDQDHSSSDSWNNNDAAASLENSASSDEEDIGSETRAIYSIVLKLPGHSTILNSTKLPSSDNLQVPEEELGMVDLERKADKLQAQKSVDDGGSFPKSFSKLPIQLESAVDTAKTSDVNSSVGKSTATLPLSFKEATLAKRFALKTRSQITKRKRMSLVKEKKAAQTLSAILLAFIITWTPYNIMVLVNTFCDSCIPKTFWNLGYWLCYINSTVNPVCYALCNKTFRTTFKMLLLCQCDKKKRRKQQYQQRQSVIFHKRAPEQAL

Compound: CC(=O)OCC[N+](C)(C)C [ACh, Acetylcholine, reference compound]
- effect of exogenous ACh alone on H1299 cell growth (H1299 cells [1]; ACh 1, 10 and 100 µM, 72 h): no significant effects on H1299 cell growth
- viability at 1 µM (H1299 cells [1]; [11]): 102 ± 1.8%
- viability at 10 µM (H1299 cells [1]; [11]): 105 ± 2.74%
- viability at 100 µM (H1299 cells [1]; [11]): 99 ± 2.72%

Compound: CCN(CC)CC1CCCCN1CC(=O)N1c2ccccc2C(=O)Nc2cccnc21 (stereo not drawn) [AF-DX116]
- effect on H1299 cell proliferation (H1299 cells [2]; [12]): inhibition on cell proliferation at the highest concentration tested

Compound: Br.CO[C@H]1CC=C2CCN3CCC4=C(CC(=O)OC4)[C@]23C1 [DhβE, Dihydro-β-erythroidine hydrobromide]
- effect on H1299 cell proliferation (H1299 cells [2]; [12]): no obvious effects on cell proliferation

Compound: O[C@@](CO[C@H]1CN2CCC1CC2)(c1ccccc1)C1CCCC1 [R2-PHC]
- inhibitory potency relative to darifenacin (H1299 cells [2]; H1299, 72 h, SRB): about 3.7 fold
- effect on H1299 cell proliferation (H1299 cells [2]; [12]): significantly inhibited H1299 cell proliferation in a concentration-dependent manner

Compound: O[C@@](CO[C@H]1C[N+]2(C3CC3)CCC1CC2)(c1ccccc1)C1CCCC1 [R2HBJJ]
- IC50 [3]: 0.739 nM
- Ki [3]: 0.0786 nM
- IC50 [4]: 0.38 nM
- Ki [4]: 0.0679 nM
- IC50 [5, 13]: 5.33 nM
- Ki [5, 14]: 1.33 nM
- IC50 [6, 13]: 1.47 nM
- Ki [6, 14]: 0.106 nM
- IC50 [7, 13]: 1.61 nM
- Ki [7, 14]: 0.264 nM
- inhibitory potency relative to darifenacin (H1299 cells [2]; H1299, 72 h, SRB): about 3.7 fold
- effect on H1299 cell proliferation (H1299 cells [2]; [12]): significantly inhibited H1299 cell proliferation in a concentration-dependent manner
- GI50 (H1299 cells [2]; Homo sapiens, NCI-H1299, read-out: 50% growth-inhibitory concentration (GI50), H1299, 72 h, SRB): 8500 nM
- GI50 (H460 cells): 8800 nM
- GI50 (H157 cells): 28500 nM
- GI50 (A549 cells): > 100000 nM
- GI50 (BEP2D cells): > 100000 nM
- viability at 10 µM (H1299 cells [1]; Homo sapiens, NCI-H1299, 72 h, read-out: cell viability, R2HBJJ 10 µM, ACh 0 µM, H1299, 72 h): 54.1 ± 3.89%
- viability at 20 µM (H1299 cells [1]; Homo sapiens, NCI-H1299, 72 h, read-out: cell viability, R2HBJJ 20 µM, ACh 0 µM, H1299, 72 h): 23.2 ± 2.14%
- viability at 10 µM (H1299 cells [1]; Homo sapiens, NCI-H1299, read-out: cell viability, R2HBJJ 10 µM, ACh 1 µM added 1 h before, H1299, 72 h): 55 ± 6.79%
- viability at 10 µM (H1299 cells [1]; Homo sapiens, NCI-H1299, read-out: cell viability, R2HBJJ 10 µM, ACh 10 µM added 1 h before, H1299, 72 h): 82.3 ± 5.82%
- viability at 10 µM (H1299 cells [1]; Homo sapiens, NCI-H1299, read-out: cell viability, R2HBJJ 10 µM, ACh 100 µM added 1 h before, H1299, 72 h): 91.1 ± 3.65%
- viability at 20 µM (H1299 cells [1]; Homo sapiens, NCI-H1299, read-out: cell viability, R2HBJJ 20 µM, ACh 1 µM added 1 h before, H1299, 72 h): 24.1 ± 1.94%
- viability at 20 µM (H1299 cells [1]; Homo sapiens, NCI-H1299, read-out: cell viability, R2HBJJ 20 µM, ACh 10 µM added 1 h before, H1299, 72 h): 35.6 ± 4.48%
- viability at 20 µM (H1299 cells [1]; Homo sapiens, NCI-H1299, read-out: cell viability, R2HBJJ 20 µM, ACh 100 µM added 1 h before, H1299, 72 h): 58.5 ± 2.83%
- viability at 8 µM (H1299 cells [8]; [11]): 83.5%
- viability at 16 µM (H1299 cells [8]; [11]): 57.4%
- effect on cell growth after M3 siRNA transfection (H1299 cells [8]; M3 siRNA treated H1299 cells, R2HBJJ 8 µM and 16 µM, 72 h): didn't further influence the cell growth
- percentage of G0/G1 phase (H1299 cells [9]; 48 h (Fig. 7B, concentration series), control 39.60%): 70.01%
- percentage of G0/G1 phase (H1299 cells [9]; 72 h (Fig. 7A), control 40.35%): 76.60%
- percentage of S phase (H1299 cells [9]; 72 h (Fig. 7A), control 46.14%): 15.93%
- levels of cyclin D1, CDK4 and CDK6 proteins ([10]; H1299, 20 µM, 3–60 h): dramatic down-regulation
- levels of cyclin E and CDK2 ([10]; H1299, 20 µM, 3–60 h): remained basically unaltered
- phosphorylation of Rb (particularly at Ser807/811) ([10]; H1299, 20 µM, 3–60 h): decreased time-dependently
- lowest concentration at which decrease of Rb phosphorylated at Ser807/811 occurred ([10]; H1299, 48 h, 1.25–20 µM tested): 1.25 µM

Compound: CN1[C@@H]2CC[C@H]1C[C@@H](OC(=O)C(CO)c1ccccc1)C2 (stereo partly drawn) [atropine]
- effect on H1299 cell proliferation (H1299 cells [2]): no obvious effects on cell proliferation

Compound: NC(=O)C(c1ccccc1)(c1ccccc1)[C@@H]1CCN(CCc2ccc3c(c2)CCO3)C1 [darifenacin]
- effect on H1299 cell proliferation (H1299 cells [2]; [12]): significantly inhibited H1299 cell proliferation in a concentration-dependent manner

Compound: CNC1(C)C2CCC(C2)C1(C)C (stereo not drawn) [mecamylamine]
- effect on H1299 cell proliferation (H1299 cells [2]; [12]): no obvious effects on cell proliferation

Compound: CN1CCN(CC(=O)N2c3ccccc3C(=O)Nc3cccnc32)CC1 [pirenzepine]
- effect on H1299 cell proliferation (H1299 cells [2]; [12]): no obvious effects on cell proliferation

Compound: α-bungarotoxin [α-bgt]
- effect on H1299 cell proliferation (H1299 cells [2]): no obvious effects on cell proliferation
